Test results taken from ChEMBL document CHEMBL1201862, “PubChem BioAssay data set” (2004).
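Values below derive from 48-hour exposures of cells grown in 96-well plates, with endpoints linearly interpolated between the two concentrations bracketing the appropriate inhibition level. GI50 = concentration required for 50% inhibition of growth.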 The source made the active and inactive calls. Cut-off read from the data, not from the text of the source: active = GI50 up to about 1.1 µM and inactive = higher.

Columns and labels:
Assay in all cases: NCI tumour cell line growth inhibition, 48 h
[1] = tested on: SK-OV-3
[2] = tested on: SK-MEL-2
[3] = tested on: CCRF-CEM
[4] = tested on: HCT-116
[5] = tested on: DMS-114
[6] = tested on: TK-10
[7] = tested on: SN12C
[8] = tested on: LOX IMVI
[9] = tested on: SK-MEL-28
[10] = tested on: SNB-19
[11] = tested on: HOP-62
[12] = tested on: SF-539
[13] = tested on: RXF 393
[14] = tested on: NCI-H522
[15] = tested on: NCI-H460
[16] = tested on: DLD-1
[17] = tested on: SR
[18] = tested on: RPMI-8226
[19] = tested on: XF498
[20] = tested on: IGROV-1
[21] = tested on: UACC-62
[22] = tested on: MOLT-4
[23] = tested on: CAKI-1
[24] = tested on: NCI-H23
[25] = tested on: HOP-18
[26] = tested on: HL-60
[27] = tested on: OVCAR-8
[28] = tested on: OVCAR-5
[29] = tested on: SW-620
[30] = tested on: HCC 2998
[31] = tested on: SF-268
[32] = tested on: Malme-3M
[33] = tested on: COLO 205
[34] = tested on: HCT-15
[35] = tested on: LXFL 529
[36] = tested on: 786-0
[37] = tested on: A498
[38] = tested on: OVCAR-3
[39] = tested on: DMS-273
[40] = tested on: OVCAR-4
[41] = tested on: ACHN
[42] = tested on: RXF 631
[43] = tested on: KM12
[44] = tested on: HT-29
[45] = tested on: SNB-75
[46] = tested on: EKVX
[47] = tested on: M14
[48] = tested on: UO-31
[49] = tested on: UACC-257
[50] = tested on: K562
[51] = tested on: SNB-78
[52] = tested on: A549
[53] = tested on: SF-295
[54] = tested on: U-251
[55] = tested on: SK-MEL-5
[56] = tested on: M19-MEL
[57] = tested on: HOP-92
[58] = tested on: KM-20L2
[59] = tested on: NCI-H226

For `[O-][n+]1ccccc1S` [PYRITHIONE ZINC], the GI50 [1] was 17400 nM (inactive), the GI50 [2] was 1490 nM (inactive) and the GI50 [3] was 33.1 nM (active). For the same molecule, the GI50 [4] was 500 nM (active), the GI50 [5] was 419 nM (active) and the GI50 [6] was 10100 nM (inactive). For the same molecule, the GI50 [7] was 1870 nM (inactive), the GI50 [8] was 1400 nM (inactive) and the GI50 [9] was 1970 nM (inactive). The GI50 [10] was 5200 nM (inactive), the GI50 [11] was 4340 nM (inactive) and the GI50 [12] was 1970 nM (inactive). For the same molecule, the GI50 [13] was 135 nM (active), the GI50 [14] was 107 nM (active) and the GI50 [15] was 1630 nM (inactive). The GI50 [16] was 115 nM (active), the GI50 [17] was 168 nM (active) and the GI50 [18] was 100 nM (active). The GI50 [19] was 226 nM (active), the GI50 [20] was 1140 nM (inactive) and the GI50 [21] was 604 nM (active). The GI50 [22] was 97.3 nM (active), the GI50 [23] was 5130 nM (inactive) and the GI50 [24] was 1210 nM (inactive). For the same molecule, the GI50 [25] was 3780 nM (inactive), the GI50 [26] was 232 nM (active) and the GI50 [27] was 3010 nM (inactive). For the same molecule, the GI50 [28] was 5550 nM (inactive), the GI50 [29] was 161 nM (active) and the GI50 [30] was 452 nM (active). The GI50 [31] was 1030 nM (active), the GI50 [32] was 2450 nM (inactive) and the GI50 [33] was 625 nM (active). For the same molecule, the GI50 [34] was 577 nM, the GI50 [35] was 327 nM (active) and the GI50 [36] was 343 nM (active). The GI50 [37] was 796 nM (active), the GI50 [38] was 304 nM (active) and the GI50 [39] was 366 nM (active). The GI50 [40] was 542 nM (active), the GI50 [41] was 3210 nM (inactive) and the GI50 [42] was 968 nM (active). For the same molecule, the GI50 [43] was 1380 nM (inactive), the GI50 [44] was 176 nM (active) and the GI50 [45] was 3030 nM (inactive). The GI50 [46] was 2980 nM (inactive), the GI50 [47] was 1250 nM (inactive) and the GI50 [48] was 2430 nM (inactive). The GI50 [49] was 2090 nM (inactive), the GI50 [50] was 107 nM (active) and the GI50 [51] was 3940 nM (inactive). The GI50 [52] was 1550 nM (inactive), the GI50 [53] was 4460 nM (inactive) and the GI50 [54] was 1340 nM (inactive). The GI50 [55] was 1220 nM (inactive), the GI50 [56] was 562 nM (active) and the GI50 [57] was 3240 nM (inactive). The GI50 [58] was 1040 nM (active) and the GI50 [59] was 10200 nM (inactive).
